Series [1] deals with T1, ACLY (Homo sapiens, UniProt P53396).
T1 construct: His; made in house; host or cells: Escherichia coli BL21(DE3)
T1 sequence (P53396 1-1101): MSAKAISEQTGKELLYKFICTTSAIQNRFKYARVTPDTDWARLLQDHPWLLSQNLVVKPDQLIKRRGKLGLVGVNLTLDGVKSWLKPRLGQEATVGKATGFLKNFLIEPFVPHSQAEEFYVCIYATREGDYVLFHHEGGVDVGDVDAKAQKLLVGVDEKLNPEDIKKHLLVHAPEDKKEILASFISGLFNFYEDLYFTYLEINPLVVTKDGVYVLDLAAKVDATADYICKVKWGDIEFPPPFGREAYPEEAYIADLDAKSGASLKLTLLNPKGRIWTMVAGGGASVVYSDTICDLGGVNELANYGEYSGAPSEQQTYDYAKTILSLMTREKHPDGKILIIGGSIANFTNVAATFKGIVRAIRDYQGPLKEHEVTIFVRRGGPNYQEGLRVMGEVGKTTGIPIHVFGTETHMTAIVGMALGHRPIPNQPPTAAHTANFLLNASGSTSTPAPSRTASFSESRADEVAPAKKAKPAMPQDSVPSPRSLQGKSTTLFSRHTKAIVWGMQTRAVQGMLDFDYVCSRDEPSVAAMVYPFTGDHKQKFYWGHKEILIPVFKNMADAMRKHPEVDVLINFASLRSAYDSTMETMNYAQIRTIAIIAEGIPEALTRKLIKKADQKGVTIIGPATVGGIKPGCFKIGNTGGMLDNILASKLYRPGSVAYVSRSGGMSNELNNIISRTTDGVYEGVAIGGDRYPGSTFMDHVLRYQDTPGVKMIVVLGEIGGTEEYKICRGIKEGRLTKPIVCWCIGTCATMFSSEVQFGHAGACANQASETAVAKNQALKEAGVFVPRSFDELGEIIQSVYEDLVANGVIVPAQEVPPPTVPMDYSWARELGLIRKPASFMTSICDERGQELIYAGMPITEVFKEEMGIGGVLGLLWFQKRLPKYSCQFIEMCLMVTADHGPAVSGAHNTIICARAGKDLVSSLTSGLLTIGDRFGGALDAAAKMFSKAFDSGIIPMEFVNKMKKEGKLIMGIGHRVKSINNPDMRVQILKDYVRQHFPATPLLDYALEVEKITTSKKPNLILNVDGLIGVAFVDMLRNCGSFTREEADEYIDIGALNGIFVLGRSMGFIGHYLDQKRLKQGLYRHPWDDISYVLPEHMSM
The series can be described thus: ACLY enzymatic inhibition assay (ADP-Glo Kinase Assay).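 As to all read-outs here: purified recombinant His-tagged human ACLY, compounds preincubated with enzyme 15 min, then ADP formed measured as luciferase luminescence after ADP-Glo reagent depletes leftover ATP.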 The class given is biochemical. Particulars: for IC50: concentration-response curves; for inhibition rate: preliminary screening, concentration of 10 µm. A general note: In ADP-Glo the light output rises with the ADP produced.

Series [2] in a line: Cell-free aggregation assay (DMR, Epic BT system). It is filed as physicochemical. Particulars: for critical aggregation concentration (CAC): reaction buffer, DMR responses at a fixed time. As for the experimental part: The aggregation assay was performed using an Epic BT system (Corning, NY, USA). Reaction buffer (30 μL) was aliquoted in an Epic 384-well microplate (Corning, NY, USA) and equilibrated for 1 h. Then 10 μL compound solution was added and the microplate was placed on the Epic reader. Dynamic mass redistribution (DMR) signals were recorded for 1 h.

Series [3] addresses T1, ACLY. The series can be described thus: Enzymatic kinetic studies (Michaelis-Menten, Lineweaver-Burk). It is filed as biochemical. As for the experimental part: The inhibition profile of herbacetin against ACLY was determined by the Michaelis–Menten equation and Lineweaver–Burk curve. Reaction rates were recorded separately at different concentrations of substrates with various inhibitor concentrations. […] For competitive inhibition, Vmax is constant, Km decreases; for noncompetitive inhibition, Km is constant, Vmax decreases; for uncompetitive inhibition, both Vmax and Km decrease, while Km/Vmax is constant. Ki values could be calculated according to the following equations. [table]

Series [4] deals with T1, ACLY. The series can be described thus: Western blotting analysis of ACLY thermal stability. The class given is binding. Here is the method: Purified ACLY was preincubated with compounds or DMSO in tubes at room temperature for 15 min. The final concentration of ACLY was 0.58 μM. Then the solution was aliquoted into 200 μL PCR tubes and heated at the indicated temperature for 3 min. […] The SDS–PAGE samples were prepared in 1× loading buffer. A separation gel (8%) and stacking gel (5%) were used to separate and transfer target proteins onto PVDF membranes (0.45 μm). The membranes were blocked at room temperature for 1 h with a blocking solution (Beyotime, Shanghai, China), followed by addition of a primary antibody at room temperature for another 2 h. HRP-linked IgG was used as the secondary antibody and incubated at room temperature for 1 h. Protein bands were imaged by molecular imager ChemiDoc XRS+ (Bio-rad, Hercules, CA, USA).
A general note: In western blotting, separated proteins are transferred to a membrane and probed.

The target of series [5] is T1, ACLY. The series can be described thus: Thermal shift assay (Sypro Orange). It is filed as binding. Conditions: DMSO control 54.5 °C. Here is the method: The thermal shift assay was conducted in a real-time PCR machine (Bio-Rad, Hercules, CA, USA). Sypro Orange fluorescent dye was used to monitor protein folding/unfolding. Purified ACLY and compound solutions were preincubated in low-profile PCR tubes for 15 min at room temperature, and then Sypro Orange was added and incubated for another 15 min on ice. The total volume was 20 μL. The final concentration of ACLY was 1.45 μM and Sypro Orange was 12.5×. The PCR tubes were heated from 25 to 90 °C at a heating rate of 0.5 °C/10 s. The fluorescence intensity changes in each well were recorded. Tm (transition midpoint) was read from the melting curve.

Series [6] concerns mice fed on a high-fat diet. Also noted: method as in PMID 17383874. Conditions: cited from earlier work.
The next series has as its system human ACLY. Also noted: method as in PMID 30944472. Conditions: cited from earlier work.
Series [7] addresses T1, ACLY. Particulars: cited from earlier work.
Where [8] appears, read: natural ACLY inhibitors, discussion, no reference given.

Like-named read-outs stand apart in the source and are kept apart here.

As a reminder, the IC50 is the concentration that gives 50% inhibition. At ACLY [1], `O=C(O)[C@H]1O[C@@H](Oc2cc3oc(-c4ccc(O)cc4)cc(=O)c3c(O)c2O)[C@H](O)[C@@H](O)[C@@H]1O` [compound 53, Scutellarin] registered an IC50 of 3.77 ± 0.26 µM. What is called Ki is the dissociation constant of the complex between target and ligand, obtained from inhibition or displacement. Regarding `O=c1c(O)c(-c2ccc(O)cc2)oc2c(O)c(O)cc(O)c12` [compound 18, Herbacetin], in series [2] (up to 100 μM), the “DMR responses (aggregation state)” value was “negligible DMR responses”. Moreover, the Ki on ACLY [3] (ATP as substrate) was 0.29 µM; at ACLY [3] (CoA as substrate) it was 0.19 µM; at ACLY [3] (citric acid (CA) as substrate), 0.11 µM. Moreover, the inhibition pattern result at ACLY [3] (towards CA, ATP and CoA) is “noncompetitive inhibitor”. The compound further registered an IC50 against ACLY [1] of 0.5 ± 0.08 µM. At ACLY [1], this compound displayed an inhibition rate of 96.07%. Besides, the “fold more active compared with kaempferol” value on ACLY [1] (ratio of IC50 values) was found to be 20 fold. Also, the “stability of ACLY at a temperature gradient vs control” value at ACLY [4] (200 μM, significant at 52, 57, 60 and 62 °C) is “more stable”. On ACLY [4] (57 °C, different concentrations), the “isothermal dose-response of ACLY stability” value was “concentration–dependent effect”. Besides, the “Tm of ACLY” value at ACLY [5] (40 μM herbacetin) turned out to be 55.5 °C; at ACLY [5] (200 μM herbacetin), 56.5 °C. In turn, `C[C@@H]1O[C@@H](Oc2cc(O)c3c(=O)c(O)c(-c4ccc(O)c(O)c4)oc3c2)[C@H](O)[C@H](O)[C@H]1O` [compound 106, 7-(α-L-Rhamnopyranosyloxy)-2-(3,4-dihydroxyphenyl)-3,5-dihydroxy-4H-1-benzopyran-4-one] gave an IC50 against ACLY [1] of 0.57 ± 0.09 µM.

On ACLY [1], `C[C@@H]1O[C@@H](O[C@H]2[C@H](Oc3cc(O)c4c(=O)cc(-c5ccc(O)c(O)c5)oc4c3)O[C@H](CO)[C@@H](O)[C@@H]2O)[C@H](O)[C@H](O)[C@H]1O` [compound 15, Lonicerin] had an IC50 of 1.43 ± 0.44 µM.

As for `O=c1cc(-c2ccc(O)c(O)c2)oc2cc(O)c([C@@H]3O[C@H](CO)[C@@H](O)[C@H](O)[C@H]3O)c(O)c12` [compound 14, Isoorientin], on ACLY [1], half-maximal inhibition (IC50) was put at 1.86 ± 0.29 µM. Regarding `O=c1cc(-c2ccc(O)c(O)c2)oc2cc(O)cc(O)c12` [compound 51, Luteolin], at ACLY [1], 0.64 ± 0.13 µM corresponded to half-maximal inhibition (IC50) and the inhibition rate turned out to be 88.28%. On ACLY [1] (ratio of IC50 values), the “activity fold higher than that of apigenin” value amounted to 30 fold. Turning to `COc1ccc(-c2ccccc2)cc1NS(=O)(=O)c1cc(Cl)cc(Cl)c1O` [BMS–303141], in series [6], the “plasma cholesterol, triglyceride and glucose levels” value was “lowered plasma cholesterol, triglyceride and glucose levels”.

As for `O=C(O)[C@H]1O[C@@H](Oc2cc(O)c3c(=O)cc(-c4ccc(O)c(O)c4)oc3c2)[C@H](O)[C@@H](O)[C@@H]1O` [compound 5, Luteolin 7-O-glucuronide], the IC50 on ACLY [1] stood at 1.47 ± 0.2 µM.

At ACLY [1], `COc1cc(-c2oc3cc(O)cc(O)c3c(=O)c2O)ccc1O` [compound 44, Isorhamnetin] registered an IC50 of 49.7 ± 14.8 µM. `O=c1c(O)c(-c2ccc(O)cc2O)oc2cc(O)cc(O)c12` [compound 87, Morin] returned an IC50 on ACLY [1] of 4.07 ± 0.69 µM. For `Oc1cc(O)c2c(c1)O[C@H](c1ccc(O)c(O)c1)[C@H](O)C2` [compound 75, Epicatechin], the IC50 against ACLY [1] came out at 31.6 ± 9.45 µM. `COC(=O)c1cc(Cl)c(O)c(S(=O)(=O)Nc2cc(-c3ccccc3)c(F)cc2F)c1` [NDI–091143]: the potency result in the series on human ACLY is on record as “nanomolar potency”. On to `O=C(/C=C/c1ccc(O)c(O)c1)O[C@@H]1C[C@](O)(C(=O)O)C[C@@H](OC(=O)/C=C/c2ccc(O)c(O)c2)[C@H]1O` [isochlorogenic acid A], for which, at ACLY [7] (setting [8]), the IC50 is 0.1 µM.

Turning to `C[C@@H]1C[C@H]2O[C@@H]2/C=C\C=C\C(=O)Cc2c(Cl)c(O)cc(O)c2C(=O)O1` [radicicol], at ACLY [7] (setting [8]), the Ki is 10 µM. Regarding `O=C(O)CC(O)(C(=O)O)C(O)C(=O)O` (centres unmarked) [Hydroxycitric acid], the Ki at ACLY [7] was 3 µM; at ACLY [7] (setting [8]), 300 µM. With `O=c1c(O[C@@H]2O[C@H](CO)[C@@H](O)[C@H](O)[C@H]2O)c(-c2ccc(O)c(O)c2)oc2cc(O)cc(O)c12` [compound 20, Isoquercetin], 2.14 ± 0.12 µM corresponded to half-maximal inhibition at ACLY [1] (IC50). With `O=c1c(O)c(-c2ccc(O)c(O)c2)oc2cc(O)cc(O)c12` [compound 29, Quercetin], in series [2], the “critical aggregation concentration (CAC)” value worked out at 6.47 µM. At ACLY [1], this compound yielded an IC50 of 0.86 ± 0.05 µM and an inhibition rate of 91.09%. Also, at ACLY [1] (ratio of IC50 values), the “fold more active compared with kaempferol” value came out at 10 fold. With antimycin, the Ki on ACLY [7] (setting [8]) is 4 µM. For anthrone, the IC50 at ACLY [7] (setting [8]) was 0.28 µM. Regarding `O=c1c(O[C@@H]2O[C@H](CO)[C@H](O)[C@H](O)[C@H]2O)c(-c2ccc(O)c(O)c2)oc2cc(O)cc(O)c12` [compound 6, Hyperoside], the IC50 at ACLY [1] is 1.53 ± 0.08 µM. At ACLY [1], `O=c1cc(-c2ccc(O)cc2)oc2cc(O)c(O)c(O)c12` [compound 52, Scutellarein] displayed an IC50 of 0.71 ± 0.06 µM and an inhibition rate of 91.80%. The compound `Oc1cc(O)c2c(c1)OC(c1ccc(O)c(O)c1)C(O)C2` (centres unmarked) [compound 73, Catechin] had an IC50 against ACLY [1] of 23.6 ± 19.2 µM. Still for that read-out and setting: then `O=c1c(O)c(-c2ccc(O)cc2)oc2cc(O)cc(O)c12` [compound 30, Kaempferol], with 10.2 ± 1.07 µM.

On ACLY [1], `O=c1cc(-c2ccc(O)cc2)oc2cc(O)cc(O)c12` [compound 21, Apigenin] showed an IC50 of 19.1 ± 11.6 µM. Turning to `O=C1c2c(O)cc(O)cc2OC(c2ccc(O)c(O)c2)C1O` (centres unmarked) [compound 19, Taxifolin], the IC50 at ACLY [1] came out at 2.54 ± 0.25 µM. With `O=c1c(O)c(-c2cc(O)c(O)c(O)c2)oc2cc(O)cc(O)c12` [compound 89, Myricetin], the “critical aggregation concentration (CAC)” value in series [2] stood at 1.82 µM. The IC50 against ACLY [1] stood at 0.57 ± 0.03 µM. Consider `O=c1c(O)c(-c2ccc(O)c(O)c2)oc2c(O)c(O)cc(O)c12` [compound 93, Gossypetin], for which, on ACLY [1], the IC50 was found to be 0.31 ± 0.02 µM. Same read-out and setting: the result for `Oc1cc(O)c2cc(O)c(-c3ccc(O)c(O)c3)[o+]c2c1` [compound 74, Cyanidin] reads 1.29 ± 0.14 µM.
